Measured values reported in patent publication US20230192705A1, “SHP2 INHIBITORS, COMPOSITIONS AND USES THEREOF” (Betta Pharmaceuticals Co., Ltd, priority 2020, published 2023).

Target: T1, SHP2 (Homo sapiens, UniProt Q06124)
T1 sequence (Q06124 1-593): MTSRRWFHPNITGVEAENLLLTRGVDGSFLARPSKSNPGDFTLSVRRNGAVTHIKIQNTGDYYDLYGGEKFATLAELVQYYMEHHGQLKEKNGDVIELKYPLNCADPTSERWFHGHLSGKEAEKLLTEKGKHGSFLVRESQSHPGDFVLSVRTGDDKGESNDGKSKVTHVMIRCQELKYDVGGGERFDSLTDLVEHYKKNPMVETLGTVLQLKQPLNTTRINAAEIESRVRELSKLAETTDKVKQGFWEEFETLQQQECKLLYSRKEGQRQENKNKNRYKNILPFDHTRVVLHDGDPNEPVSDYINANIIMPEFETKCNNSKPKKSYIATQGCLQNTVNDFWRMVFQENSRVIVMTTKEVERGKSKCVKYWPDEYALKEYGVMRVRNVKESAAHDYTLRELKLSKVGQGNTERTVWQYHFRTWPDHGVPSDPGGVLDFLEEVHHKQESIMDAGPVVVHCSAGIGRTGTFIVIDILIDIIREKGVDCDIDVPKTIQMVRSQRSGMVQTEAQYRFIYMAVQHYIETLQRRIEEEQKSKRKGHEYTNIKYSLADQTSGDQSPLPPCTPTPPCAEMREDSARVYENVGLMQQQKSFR
Experiment: SHP2 allosteric inhibitor enzyme activity assay (DiFMUP fluorescence)
Assay type: biochemical
Conditions: class symbols
Excerpt: SHP2 is activated by the binding of a bis-tyrosyl-phosphorylated peptide to its Src homologous 2 (SH2) domain. This subsequent activation step leads to the release of the automatic inhibition interface of SHP2, which in turn activates the SHP2 protein tyrosine phosphatase (PTP) and can be used for substrate recognition and reaction catalysis. The catalytic activity of SHP2 was monitored using the alternative DiFMUP in a rapid fluorescence assay format.
Assay procedures are as follows:
(1) Compound Formulation:
The compound of the present invention (10 mM stock solution) was diluted to a suitable multiple with 100% DMSO and assay buffer, and the final test concentration of the compound of the present invention was 1 μM, 0.333 μM, 0.111 μM, 0.0370 μM, 0.0124 μM, 0.00412 μM, 0.00137 μM, 0.00046 μM, 0.00015 μM, 0.00 μM;
(2) Preparation of Enzyme Reaction Working Fluid:
SHP2 enzyme activity was performed using a final reaction volume of 50 μL and the following assay buffer conditions in 96-well black polystyrene plates (flat bottom, low flange, non-bonding surface) (Perki Elmer, Cat #6005270) at room temperature: 60 mM HEPES, 75 mM NaCl, 75 mM KCl, 0.05% BRIJ-35, 1 mM EDTA, 5 mM DTT.
(3) Enzyme Catalytic Reaction and Data Monitoring:
Compounds of the present invention were added to the corresponding 96-well plates, and no compound and enzyme were provided as blank test wells. SHP2 Activating Peptide (IRS1_pY1172 (dPEG8)pY1222) was placed on ice for melting, and 0.5 μM was added per well, then 0.2 ng SHP2 protein samples were added to corresponding well plates, and incubated at room temperature for 1 hour. Substrate DiFMUP (Invitrogen, Cat #D6567) was added to the reaction at room temperature for 1 hour. Fluorescence signals were monitored using an enzyme reader (Envision, Perki Elmer) using excitation wavelengths and emission wavelengths of 340 nm and 450 nm, respectively.
Inhibition %=[1−(Conversion_sample−Conversion_min)/(Conversion_max−Conversion_min)]*100% Calculation formula: […]
where: Conversion_sample is the mean reading of the sample wells; Conversion_min is the mean reading of blank control wells, representing the reading of the wells without enzyme; Conversion_max is the mean of positive control wells, representing the reading of the wells without inhibitor.
The dose-response curve is fitted with GraphPad Prism software and IC50 was calculated by the “log[inhibitor] vs. response-variable slope” program.

| Compound | IC50 [µM] |
| --- | --- |
| Cn1cc(-c2cccc(C3(c4n[nH]c5nc(N6CCC7(CC6)Cc6ccccc6[C@H]7N)[nH]c(=O)c45)CC3)c2)cn1 [Example 36, (S)-6-(1-amino-1,3-dihydrospiro[indene-2,4′-piperidin]-1′-yl)-3-(1-(3-(1-methyl-1H-pyrazol-4-yl)phenyl)cyclopropyl)-1,5-dihydro-4H-pyrazolo[3,4-d]pyrimidin-4-one] | ≤ 0.02 |
| Cn1ncc(-c2cccc(C3(c4n[nH]c5nc(N6CCC7(CC6)Cc6ccccc6[C@H]7N)[nH]c(=O)c45)CC3)c2)n1 [Example 37, (S)-6-(1-amino-1,3-dihydrospiro[indene-2,4′-piperidin]-1′-yl)-3-(1-(3-(2-methyl-2H-1,2,3-triazol-4-yl)phenyl)cyclopropyl)-1,5-dihydro-4H-pyrazolo[3,4-d]pyrimidin-4-one] | ≤ 0.02 |
| N[C@@H]1c2ccccc2CC12CCN(c1nc3[nH]nc(C4(c5cccc(C6CCOC6)c5)CC4)c3c(=O)[nH]1)CC2 (stereo partly drawn) [Example 39, 6-((S)-1-amino-1,3-dihydrospiro[indene-2,4′-piperidin]-1′-yl)-3-(1-(3-(tetrahydrofuran-3-yl)phenyl)cyclopropyl)-1,5-dihydro-4H-pyrazolo[3,4-d]pyrimidin-4-one] | ≤ 0.02 |
| N[C@@H]1c2ccccc2CC12CCN(c1nc3[nH]nc(C4(c5cccc(C6CCOCC6)c5)CC4)c3c(=O)[nH]1)CC2 [Example 40, (S)-6-(1-amino-1,3-dihydrospiro[indene-2,4′-piperidin]-1′-yl)-3-(1-(3-(tetrahydro-2H-pyran-4-yl)phenyl)cyclopropyl)-1,5-dihydro-4H-pyrazolo[3,4-d]pyrimidin-4-one] | ≤ 0.02 |
| CCOC(=O)Nc1cccc(C2(c3n[nH]c4nc(N5CCC6(CC5)Cc5ccccc5[C@H]6N)[nH]c(=O)c34)CC2)c1 [Example 41, ethyl (S)-(3-(1-(6-(1-amino-1,3-dihydrospiro[indene-2,4′-piperidin]-1′-yl)-4-oxo-4,5-dihydro-1H-pyrazolo[3,4-d]pyrimidin-3-yl)cyclopropyl)phenyl)carbamate] | ≤ 0.02 |
| Nc1cccc(C2(c3n[nH]c4nc(N5CCC6(CC5)Cc5ccccc5[C@H]6N)[nH]c(=O)c34)CC2)c1 [Example 43, (S)-6-(1-amino-1,3-dihydrospiro[indene-2,4′-piperidin]-1′-yl)-3-(1-(3-aminophenyl)cyclopropyl)-1,5-dihydro-4H-pyrazolo[3,4-d]pyrimidin-4-one] | ≤ 0.02 |
| COCCOc1cccc(C2(c3n[nH]c4nc(N5CCC6(CC5)Cc5ccccc5[C@H]6N)[nH]c(=O)c34)CC2)c1 [Example 44, (S)-6-(1-amino-1,3-dihydrospiro[indene-2,4′-piperidin]-1′-yl)-3-(1-(3-(2-methoxyethoxy)phenyl)cycloprop-yl)-1,5-dihydro-4H-pyrazolo[3,4-d]pyrimidin-4-one] | ≤ 0.02 |
| Nc1nccc(C2(c3n[nH]c4nc(N5CCC6(CC5)Cc5ccccc5[C@H]6N)[nH]c(=O)c34)CC2)c1Cl [Example 46, (S)-6-(1-amino-1,3-dihydrospiro[indene-2,4′-piperidin]-1′-yl)-3-(1-(2-amino-3-chloropyridin-4-yl)cyclopropyl)-1,5-dihydro-4H-pyrazolo[3,4-d]pyrimidin-4-one] | ≤ 0.02 |
| N[C@@H]1c2ccccc2CC12CCN(c1nc3[nH]nc(C4(c5ccnc(Cl)c5Cl)CC4)c3c(=O)[nH]1)CC2 [Example 48, (S)-6-(1-amino-1,3-dihydrospiro[indene-2,4′-piperidin]-1′-yl)-3-(1-(2,3-dichloropyridin-4-yl)cyclopropyl)-1,5-dihydro-4H-pyrazolo[3,4-d]pyrimidin-4-one] | ≤ 0.02 |
| N[C@@H]1c2ccccc2CC12CCN(c1nc3[nH]nc(C4(c5cccc(Cl)c5Cl)CC4)c3c(=O)[nH]1)CC2 [Example 49, (S)-6-(1-amino-1,3-dihydrospiro[indene-2,4′-piperidin]-1′-yl)-3-(1-(2,3-dichlorophenyl)cyclopropyl)-1,5-dihydro-4H-pyrazolo[3,4-d]pyrimidin-4-one] | ≤ 0.02 |
